Reference: patent US20090187484A1, “Soil treatments with carbon dioxide” (Cleareso, LLC, priority 2008, published 2009)

Assays:
[1] = tested on: Larvae of the root weevil, Diaprepes abbreviatus; assay: Immersion of root weevil larvae in test solutions (mortality, moribund effect); format: in vivo; conditions: for toxicity judgement for the larvae: 0.1 to 5.0%, test terminated at 24 hours; for black residue across all treatments: control to 5.0%; for Mortality of larvae with individual compounds and formulations: five larvae
From the text: Larvae and pupae of the root weevil, Diaprepes abbreviatus, were immersed in a variety of compounds to understand their effect on the activity of this pest.
The criterion for toxicity with these larvae is the lack of nipping behavior and its consequent black residue from blood loss and the lack of spontaneous movement.
Experimental Design. Larvae and pupae were received from the Florida Dept. of Agriculture's rearing program in Gainesville, Fla. Larvae were shipped as 50-day larvae (larvae that will pupate in about 10 days). Both larvae and pupae were held at 27° C. in 12 hour cycles of light and dark in their containers as separate individuals until experimentation began.
In the testing, five larvae or pupae were removed from their rearing cups and placed in a 150 ml glass beaker. In testing the Soy Technologies Manufacturer's Base (SMTB), a 5% solution was mixed in either water or carbonated water by adding 10 ml of SMTB to a 250 ml beaker and then adding water or carbonated water to the 200 ml mark. The solutions were then immediately added to the beaker with the larvae or pupae to cover them. Controls with water or carbonated water alone were also included. There was a single tray of five larvae for each treatment at each time period and a five larvae control for each time period. Larvae were removed and placed on plastic weighing trays after 5,10, 15, 20, 25, and 30 minutes. At the end of 30 minutes all organisms were assessed for mortality. Trays with larvae were left on the bench tip for 24 hours and then another mortality assessment was made.
Concentration Series. With the results from the time series above, larvae were held in different concentrations of STMB for 30 minutes. After 30 minutes, solutions were poured off and the trays wiped dry. Assessments were made at 24 or 48 hours with a few assessments at 72 hours dependent on effects. Treatments were: water or carbonated water as controls, and 0.1, 0.5, 1.0, 2.0, 3.0, 4.0 and 5.0% concentrations in either distilled water or carbonated water. Five larvae were used for each control and treatment. Pupae were not used in this assessment.

[2] = Solubility and appearance of the aqueous test preparations; format: physicochemical

## COC(=O)CCC(=O)OC [106-65-0, butanedioic acid, dimethyl ester]
[1]
  toxicity judgement for the larvae: non-toxic
[1]; 24 hours
  black residue across all treatments: all treatments looked just like the control
[2]; 0.1% concentration
  solubility of aqueous preparation: soluble
[2]; 1.0% concentration
  solubility of aqueous preparation: just soluble
[2]; 3.0% concentration
  solubility of aqueous preparation: not soluble
[2]; 5.0% concentration
  solubility of aqueous preparation: not soluble

## COC(=O)CCCCC(=O)OC [627-93-0, Dimethyl hexanedioate]
[1]; 0.1% treatment, 24 hours
  appearance (black residue) compared with control: looked identical
[1]
  toxicity judgement for the larvae: non-toxic
[1]; 5.0% treatment, 24 hours
  black residue: only slightly less black residue than the 3.0% treatment
[2]; 0.1% concentration
  solubility of aqueous preparation: soluble
[2]; 1.0% concentration
  solubility of aqueous preparation: not completely soluble
[2]; 3.0% concentration
  solubility of aqueous preparation: not completely soluble
[2]; 5.0% concentration
  solubility of aqueous preparation: not completely soluble

## COC(=O)CCCC(=O)OC [1119-40-0, pentanedioic acid, dimethyl ester]
[1]; 0.1 to 5.0% treatments, end of 30 minutes immersion
  survival of larvae after 30 minutes: All larvae were alive
[1]; 3 and 5% treatments, 48 hours
  black residue: less black residue than the control

## Polyoxyethylene 10 tridecylether [24938-91-8]
[1]; 3 and 5% treatments, 48 hours
  black residue: less black residue
[1]; concentration 0.1 percent, 24 hours
  Mortality of larvae with individual compounds and formulations: 0
[1]; concentration 0.1 percent, 48 hours
  Mortality of larvae with individual compounds and formulations: 0
[1]; concentration 0.1 percent, 72 hours
  Mortality of larvae with individual compounds and formulations: 0
[1]; concentration 1.0 percent, 24 hours
  Mortality of larvae with individual compounds and formulations: 2
[1]; concentration 1.0 percent, 48 hours
  Mortality of larvae with individual compounds and formulations: 2
[1]; concentration 1.0 percent, 72 hours
  Mortality of larvae with individual compounds and formulations: 2
[1]; concentration 3.0 percent, 24 hours
  Mortality of larvae with individual compounds and formulations: 0
[1]; concentration 3.0 percent, 48 hours
  Mortality of larvae with individual compounds and formulations: 0
[1]; concentration 3.0 percent, 72 hours
  Mortality of larvae with individual compounds and formulations: 0
[1]; concentration 5.0 percent, 24 hours
  Mortality of larvae with individual compounds and formulations: 0
[1]; concentration 5.0 percent, 48 hours
  Mortality of larvae with individual compounds and formulations: 3
[1]; concentration 5.0 percent, 72 hours
  Mortality of larvae with individual compounds and formulations: 3
[1]; 24 hours
  black residue across all treatments: gradation of black residue from control to 5.0 with 5.0 having the least
